Test results from patent US9771369B2, “Compounds and methods for kinase modulation, and indications therefor” (Plexxikon Inc., priority 2014, dated 2017).

Tests used:
[1] = system: BaF3-FL KIT D816V or BaF3-FL KIT V560G/D816V cell line; experiment: Cell-based assays of c-Kit mutant kinase activity (cell proliferation, ATPlite); conditions: at least one of the c-kit cell assays of Example 7
How it was run: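 BaF3 cells dependent on transfected full-length human KIT D816V or V560G/D816V (pCI-Neo, CMV promoter) were seeded at 1×10^4 cells/well and exposed to 8-point 1:3 dilutions from 10 μM top (0.2% DMSO) for three days at 37° C. ATPlite luminescence gave cell number; IC50 from concentration-response.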

[2] = molecular target: c-kit mutant D816V (Homo sapiens (Human), UniProt P10721, D816V/DEL694-753); experiment: c-Kit mutant D816V biochemical assay (AlphaScreen kinase activity)
How it was run: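 AlphaScreen with streptavidin donor and PY30 acceptor beads read phosphotyrosine on biotin-(E4Y)10 substrate (30 nM). Enzyme: E. coli-expressed N-His c-Kit D816V, residues 551-934 lacking kinase insert 694-753. Reaction 30 min at room temperature, 10 μM ATP, 5% DMSO; IC50 fitted over 8 three-fold dilutions.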

c-kit mutant D816V, sequence (P10721 other isoform, or with tags, fused parts or gaps D816V/del 694-753): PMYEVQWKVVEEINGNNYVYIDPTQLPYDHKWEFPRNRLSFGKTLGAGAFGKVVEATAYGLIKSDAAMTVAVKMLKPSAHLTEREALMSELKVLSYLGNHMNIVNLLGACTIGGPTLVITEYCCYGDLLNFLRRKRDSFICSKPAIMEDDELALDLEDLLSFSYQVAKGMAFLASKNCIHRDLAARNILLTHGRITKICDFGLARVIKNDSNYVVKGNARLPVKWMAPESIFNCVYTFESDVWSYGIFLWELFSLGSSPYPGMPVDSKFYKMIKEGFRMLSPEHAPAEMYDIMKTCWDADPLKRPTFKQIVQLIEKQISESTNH

Row | Compound | IC50 [1] | IC50 [2]
1 | COc1ccc(-c2[nH]c(C3(C)CCN(c4ncnc5[nH]c(-c6ccc(C#N)cc6)cc45)CC3)nc2C)cc1 [P-3043, 4-[4-[4-[5-(4-methoxyphenyl)-4-methyl-1H-imidazol-2-yl]-4-methyl-1-piperidyl]-7H-pyrrolo[2,3-d]pyrimidin-6-yl]benzonitrile] | < 10000 nM | 0.0001 to 1 µM
2 | Cc1nc(C2CCN(c3ncnc4[nH]c(-c5ccc(C(N)=O)cc5)cc34)CC2)[nH]c1-c1ccccc1 [P-3044, 4-[4-[4-(4-methyl-5-phenyl-1H-imidazol-2-yl)-1-piperidyl]-7H-pyrrolo[2,3-d]pyrimidin-6-yl]benzamide] | < 10000 nM | 0.0001 to 1 µM
3 | COc1ncc(-c2cc3c(N4CCC(c5nc(C)c(-c6ccccc6)[nH]5)CC4)ncnc3[nH]2)cn1 [P-3045, 6-(2-methoxypyrimidin-5-yl)-4-[4-(4-methyl-5-phenyl-1H-imidazol-2-yl)-1-piperidyl]-7H-pyrrolo[2,3-d]pyrimidine] | < 10000 nM | 0.0001 to 1 µM
4 | Cc1nc(C2CCN(c3ncnc4[nH]c(-c5cnn(C)c5)cc34)CC2)[nH]c1-c1ccccc1 [P-3046, 4-[4-(4-methyl-5-phenyl-1H-imidazol-2-yl)-1-piperidyl]-6-(1-methylpyrazol-4-yl)-7H-pyrrolo[2,3-d]pyrimidine] | < 10000 nM | 0.0001 to 1 µM
5 | Cc1nc(C2CCN(c3ncnc4[nH]c(-c5ccc(C#N)cc5)cc34)CC2)[nH]c1-c1ccccc1 [P-3047, 4-[4-[4-(4-methyl-5-phenyl-1H-imidazol-2-yl)-1-piperidyl]-7H-pyrrolo[2,3-d]pyrimidin-6-yl]benzonitrile] | < 10000 nM | 0.0001 to 1 µM
6 | Cc1nc(C2CCN(c3ncnc4[nH]c(-c5ccc(S(N)(=O)=O)cc5)cc34)CC2)[nH]c1-c1ccccc1 [P-3048, 4-[4-[4-(4-methyl-5-phenyl-1H-imidazol-2-yl)-1-piperidyl]-7H-pyrrolo[2,3-d]pyrimidin-6-yl]benzenesulfonamide] | < 10000 nM | 0.0001 to 1 µM
7 | CNC(=O)c1cccc(-c2cc3c(N4CCC(c5nc(C)c(-c6ccccc6)[nH]5)CC4)ncnc3[nH]2)c1 [P-3049, N-methyl-3-[4-[4-(4-methyl-5-phenyl-1H-imidazol-2-yl)-1-piperidyl]-7H-pyrrolo[2,3-d]pyrimidin-6-yl]benzamide] | < 10000 nM | 0.0001 to 1 µM
8 | Cc1nc(C2CCN(c3ncnc4[nH]c(-c5cnn(C(F)F)c5)cc34)CC2)[nH]c1-c1ccccc1 [P-3050, 6-[1-(difluoromethyl)pyrazol-4-yl]-4-[4-(4-methyl-5-phenyl-1H-imidazol-2-yl)-1-piperidyl]-7H-pyrrolo[2,3-d]pyrimidine] | < 10000 nM | 0.0001 to 1 µM
9 | Cc1nc(C2CCN(c3ncnc4[nH]c(-c5cccc(S(N)(=O)=O)c5)cc34)CC2)[nH]c1-c1ccccc1 [P-3051, 3-[4-[4-(4-methyl-5-phenyl-1H-imidazol-2-yl)-1-piperidyl]-7H-pyrrolo[2,3-d]pyrimidin-6-yl]benzenesulfonamide] | < 10000 nM | 0.0001 to 1 µM
10 | COc1ccc(-c2[nH]c(C3(C)CCN(c4ncnc5[nH]c(-c6ccc(F)cc6)cc45)CC3)nc2C)cc1C [P-3052, 6-(4-fluorophenyl)-4-[4-[5-(4-methoxy-3-methyl-phenyl)-4-methyl-1H-imidazol-2-yl]-4-methyl-1-piperidyl]-7H-pyrrolo[2,3-d]pyrimidine] | < 10000 nM | 0.0001 to 1 µM
11 | COc1ccc(-c2[nH]c(C3(C)CCN(c4ncnc5[nH]c(-c6ccc(C#N)cc6)cc45)CC3)nc2C)cc1C [P-3053, 4-[4-[4-[5-(4-methoxy-3-methyl-phenyl)-4-methyl-1H-imidazol-2-yl]-4-methyl-1-piperidyl]-7H-pyrrolo[2,3-d]pyrimidin-6-yl]benzonitrile] | < 10000 nM | 0.0001 to 1 µM
12 | COc1cc(-c2cc3c(N4CCC(C)(c5nc(C)c(-c6ccc(OC)c(C)c6)[nH]5)CC4)ncnc3[nH]2)ccn1 [P-3054, 4-[4-[5-(4-methoxy-3-methyl-phenyl)-4-methyl-1H-imidazol-2-yl]-4-methyl-1-piperidyl]-6-(2-methoxy-4-pyridyl)-7H-pyrrolo[2,3-d]pyrimidine] | < 10000 nM | 0.0001 to 1 µM
13 | CCC1(c2nc(C)c(-c3ccc(OC)cc3)[nH]2)CCN(c2ncnc3[nH]c(-c4ccc(F)cc4)cc23)CC1 [P-3055, 4-[4-ethyl-4-[5-(4-methoxyphenyl)-4-methyl-1H-imidazol-2-yl]-1-piperidyl]-6-(4-fluorophenyl)-7H-pyrrolo[2,3-d]pyrimidine] | < 10000 nM | 0.0001 to 1 µM
14 | CCC1(c2nc(C)c(-c3ccc(OC)c(C)c3)[nH]2)CCN(c2ncnc3[nH]c(-c4ccc(F)cc4)cc23)CC1 [P-3056, 4-[4-ethyl-4-[5-(4-methoxy-3-methyl-phenyl)-4-methyl-1H-imidazol-2-yl]-1-piperidyl]-6-(4-fluorophenyl)-7H-pyrrolo[2,3-d]pyrimidine] | < 10000 nM | 0.0001 to 1 µM
15 | Cc1nc(C2(C)CCN(c3ncnc4[nH]c(-c5ccc(F)cc5)cc34)CC2)[nH]c1-c1ccc(F)cc1 [P-3057, 6-(4-fluorophenyl)-4-[4-[5-(4-fluorophenyl)-4-methyl-1H-imidazol-2-yl]-4-methyl-1-piperidyl]-7H-pyrrolo[2,3-d]pyrimidine] | < 10000 nM | 0.0001 to 1 µM
16 | Cc1nc(C2(C)CCN(c3ncnc4[nH]c(-c5ccc(F)cc5)cc34)CC2)[nH]c1-c1ccc(Cl)cc1 [P-3058, 4-[4-[5-(4-chlorophenyl)-4-methyl-1H-imidazol-2-yl]-4-methyl-1-piperidyl]-6-(4-fluorophenyl)-7H-pyrrolo[2,3-d]pyrimidine] | < 10000 nM | 0.0001 to 1 µM
17 | CCc1ccc(-c2[nH]c(C3CCN(c4ncnc5[nH]c(-c6ccnc(OC)c6)cc45)CC3)nc2C)cc1 [P-3059, 4-[4-[5-(4-ethylphenyl)-4-methyl-1H-imidazol-2-yl]-1-piperidyl]-6-(2-methoxy-4-pyridyl)-7H-pyrrolo[2,3-d]pyrimidine] | < 10000 nM | 0.0001 to 1 µM
18 | CCc1ccc(-c2[nH]c(C3CCN(c4ncnc5[nH]c(-c6ccc(F)cc6)cc45)CC3)nc2C)cc1 [P-3060, 4-[4-[5-(4-ethylphenyl)-4-methyl-1H-imidazol-2-yl]-1-piperidyl]-6-(4-fluorophenyl)-7H-pyrrolo[2,3-d]pyrimidine] | < 10000 nM | 0.0001 to 1 µM
19 | CCc1ccc(-c2[nH]c(C3CCN(c4ncnc5[nH]c(-c6ccc(C#N)cc6)cc45)CC3)nc2C)cc1 [P-3061, 4-[4-[4-[5-(4-ethylphenyl)-4-methyl-1H-imidazol-2-yl]-1-piperidyl]-7H-pyrrolo[2,3-d]pyrimidin-6-yl]benzonitrile] | < 10000 nM | 0.0001 to 1 µM
20 | Cc1ccc(-c2[nH]c(C3CCN(c4ncnc5[nH]c(-c6ccc(F)cc6)cc45)CC3)nc2C)cc1 [P-3062, 6-(4-fluorophenyl)-4-[4-[4-methyl-5-(p-tolyl)-1H-imidazol-2-yl]-1-piperidyl]-7H-pyrrolo[2,3-d]pyrimidine] | < 10000 nM | 0.0001 to 1 µM
21 | COc1ccc(-c2[nH]c(C3(C)CCN(c4ncnc5[nH]c(C)cc45)CC3)nc2C)cc1 [P-3063, 4-[4-[5-(4-methoxyphenyl)-4-methyl-1H-imidazol-2-yl]-4-methyl-1-piperidyl]-6-methyl-7H-pyrrolo[2,3-d]pyrimidine] | < 10000 nM | 0.0001 to 1 µM
22 | Cc1cc2c(N3CCC(C)(c4nc(C)c(-c5ccc(F)cc5)[nH]4)CC3)ncnc2[nH]1 [P-3064, 4-[4-[5-(4-fluorophenyl)-4-methyl-1H-imidazol-2-yl]-4-methyl-1-piperidyl]-6-methyl-7H-pyrrolo[2,3-d]pyrimidine] | < 10000 nM | 0.0001 to 1 µM
23 | CCOc1ccc(-c2[nH]c(C3CCN(c4ncnc5[nH]c(-c6ccc(F)cc6)cc45)CC3)nc2C)cc1C [P-3065, 4-[4-[5-(4-ethoxy-3-methyl-phenyl)-4-methyl-1H-imidazol-2-yl]-1-piperidyl]-6-(4-fluorophenyl)-7H-pyrrolo[2,3-d]pyrimidine] | < 10000 nM | 0.0001 to 1 µM
24 | CCOc1ccc(-c2[nH]c(C3CCN(c4ncnc5[nH]c(-c6ccc(C#N)cc6)cc45)CC3)nc2C)cc1C [P-3066, 4-[4-[4-[5-(4-ethoxy-3-methyl-phenyl)-4-methyl-1H-imidazol-2-yl]-1-piperidyl]-7H-pyrrolo[2,3-d]pyrimidin-6-yl]benzonitrile] | < 10000 nM | 0.0001 to 1 µM
25 | CCOc1ccc(-c2[nH]c(C3CCN(c4ncnc5[nH]c(-c6ccnc(OC)c6)cc45)CC3)nc2C)cc1C [P-3067, 4-[4-[5-(4-ethoxy-3-methyl-phenyl)-4-methyl-1H-imidazol-2-yl]-1-piperidyl]-6-(2-methoxy-4-pyridyl)-7H-pyrrolo[2,3-d]pyrimidine] | < 10000 nM | 0.0001 to 1 µM
26 | Cc1nc(C2CCN(c3ncnc4[nH]c(-c5ccc(F)cc5)cc34)CC2)[nH]c1-c1ccc2c(c1)OCO2 [P-3068, 4-[4-[5-(1,3-benzodioxol-5-yl)-4-methyl-1H-imidazol-2-yl]-1-piperidyl]-6-(4-fluorophenyl)-7H-pyrrolo[2,3-d]pyrimidine] | < 10000 nM | 0.0001 to 1 µM
27 | Cc1nc(C2CCN(c3ncnc4[nH]c(-c5ccc(C#N)cc5)cc34)CC2)[nH]c1-c1ccc2c(c1)OCO2 [P-3069, 4-[4-[4-[5-(1,3-benzodioxol-5-yl)-4-methyl-1H-imidazol-2-yl]-1-piperidyl]-7H-pyrrolo[2,3-d]pyrimidin-6-yl]benzonitrile] | < 10000 nM | 0.0001 to 1 µM
28 | COc1cc(-c2cc3c(N4CCC(c5nc(C)c(-c6ccc7c(c6)OCO7)[nH]5)CC4)ncnc3[nH]2)ccn1 [P-3070, 4-[4-[5-(1,3-benzodioxol-5-yl)-4-methyl-1H-imidazol-2-yl]-1-piperidyl]-6-(2-methoxy-4-pyridyl)-7H-pyrrolo[2,3-d]pyrimidine] | < 10000 nM | 0.0001 to 1 µM
